Results: the supplement of paper PMC10307832

Experiments:
Test in all cases: relative viability (nuclei count vs DMSO), 5 days (fraction); higher = more cells survive
IU1-47 + Luminespib = compound: CC1=CC(=C(N1C2=CC=C(C=C2)Cl)C)C(=O)CN3CCCCC3 [IU1-47] + CCNC(=O)c1noc(-c2cc(C(C)C)c(O)cc2O)c1-c1ccc(CN2CCOCC2)cc1 [Luminespib] (partner 0.01 µM)
Summary of the method: (§1)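 Medians of duplicate plates are given as relative viability. That measure is the nuclei count in treated wells divided by the count in vehicle wells. Counts were taken on 4× images of lung cancer cell lines in 1536-well plates, 5 days after pin-tool dosing the day after seeding with one drug alone or a fixed anchor-drug dose plus five library-drug doses (not always all listed) in √10 steps.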

IU1-47 + Trametinib = compound: CC1=CC(=C(N1C2=CC=C(C=C2)Cl)C)C(=O)CN3CCCCC3 [IU1-47] + CC(=O)Nc1cccc(-n2c(=O)n(C3CC3)c(=O)c3c(Nc4ccc(I)cc4F)n(C)c(=O)c(C)c32)c1 [Trametinib] (partner 0.02 µM)
Summary of the method: as §1

FG-4592 + Pictilisib = compound: Cc1nc(C(=O)NCC(=O)O)c(O)c2ccc(Oc3ccccc3)cc12 [FG-4592] + CS(=O)(=O)N1CCN(Cc2cc3nc(-c4cccc5[nH]ncc45)nc(N4CCOCC4)c3s2)CC1 [Pictilisib] (partner 1 µM)
Summary of the method: as §1

FG-4592 + Olaparib = compound: Cc1nc(C(=O)NCC(=O)O)c(O)c2ccc(Oc3ccccc3)cc12 [FG-4592] + O=C(c1cc(Cc2n[nH]c(=O)c3ccccc23)ccc1F)N1CCN(C(=O)C2CC2)CC1 [Olaparib] (partner 8 µM)
Summary of the method: as §1

| Cell Line | relative viability (IU1-47 + Luminespib; first compound 0.08 µM) | relative viability (IU1-47 + Luminespib; first compound 0.253 µM) | relative viability (IU1-47 + Luminespib; first compound 0.8 µM) | relative viability (IU1-47 + Luminespib; first compound 8 µM) | relative viability (IU1-47 + Trametinib; first compound 0.08 µM) | relative viability (IU1-47 + Trametinib; first compound 0.253 µM) | relative viability (IU1-47 + Trametinib; first compound 0.8 µM) | relative viability (IU1-47 + Trametinib; first compound 2.53 µM) | relative viability (IU1-47 + Trametinib; first compound 8 µM) | relative viability (FG-4592 + Pictilisib; first compound 0.08 µM) | relative viability (FG-4592 + Pictilisib; first compound 0.253 µM) | relative viability (FG-4592 + Pictilisib; first compound 0.8 µM) | relative viability (FG-4592 + Pictilisib; first compound 2.53 µM) | relative viability (FG-4592 + Pictilisib; first compound 8 µM) | relative viability (FG-4592 + Olaparib; first compound 0.08 µM) | relative viability (FG-4592 + Olaparib; first compound 0.253 µM) | relative viability (FG-4592 + Olaparib; first compound 0.8 µM) | relative viability (FG-4592 + Olaparib; first compound 2.53 µM) | relative viability (FG-4592 + Olaparib; first compound 8 µM) | relative viability (IU1-47 + Luminespib; first compound 2.53 µM) |
| --- | --- | --- | --- | --- | --- | --- | --- | --- | --- | --- | --- | --- | --- | --- | --- | --- | --- | --- | --- | --- |
| 201T | 1.1 | 1.08 | 1.15 | 1.07 | 0.719 | 0.747 | 0.715 | 0.7 | 0.73 | 0.642 | 0.644 | 0.584 | 0.695 | 0.675 | 0.841 | 0.794 | 0.843 | 0.878 | 0.827 | – |
| A549 | – | – | – | – | – | – | – | – | – | 0.488 | 0.455 | 0.452 | 0.489 | 0.456 | 0.252 | 0.274 | – | 0.44 | 0.385 | – |
| A-427 | 0.999 | 0.89 | 0.971 | 0.872 | 0.833 | 0.879 | 0.773 | 0.749 | 0.636 | 0.674 | 0.739 | 0.503 | 0.661 | 0.742 | 0.687 | 0.731 | 0.718 | 0.689 | 0.705 | 1.04 |
| ABC-1 | 0.957 | 1.01 | 1.02 | 0.733 | – | – | – | – | – | 0.778 | – | 0.55 | 0.7 | 0.539 | 0.781 | 0.798 | – | 1.13 | 1.07 | – |
| BEN | 0.362 | 0.459 | 0.414 | 0.344 | 1.21 | 1.1 | 1.23 | 0.896 | 1.15 | 0.442 | 0.485 | 0.429 | 0.561 | 0.459 | 1.13 | 0.99 | 1.07 | 1.02 | 0.956 | – |
| CAL-12T | 0.878 | 0.291 | 0.363 | 0.495 | 0.353 | 0.368 | 0.309 | 0.289 | 0.32 | 0.516 | 0.494 | 0.221 | 0.555 | 0.523 | 0.63 | 0.67 | 0.727 | 0.764 | 0.687 | 0.438 |
| COR-L23 | 0.836 | 0.85 | 0.71 | 0.675 | 0.579 | 0.578 | 0.595 | 0.534 | 0.788 | 0.812 | 0.617 | 0.849 | 0.685 | 0.728 | 0.331 | 0.358 | 0.358 | 0.3 | 0.369 | 0.817 |
| COR-L 105 | 0.775 | 0.673 | 1 | 0.696 | 0.522 | 0.422 | 0.45 | 0.461 | 0.459 | 0.372 | 0.326 | 0.328 | 0.266 | 0.318 | 0.767 | 0.787 | 0.792 | 0.719 | 0.635 | 0.809 |
| Calu-6 | – | – | – | – | – | – | – | – | – | 0.885 | 0.859 | 0.921 | 0.902 | 0.856 | 0.543 | 0.575 | 0.653 | 0.56 | 0.648 | – |
| ChaGo-K-1 | 0.623 | 0.618 | 0.713 | 0.703 | 0.927 | 0.869 | 0.958 | 0.813 | 0.814 | 0.769 | 0.714 | 0.452 | 0.791 | 0.544 | 0.44 | 0.399 | 0.4 | 0.461 | 0.456 | 0.671 |
| EBC-1 | – | – | – | – | – | – | – | – | – | 0.401 | 0.371 | 0.417 | 0.387 | 0.335 | 0.83 | 0.663 | 0.718 | 0.659 | 0.662 | – |
| EKVX | 1.01 | 1.05 | 0.881 | 0.978 | 0.369 | 0.374 | 0.375 | – | 0.296 | 0.395 | 0.377 | 0.478 | 0.428 | 0.441 | 0.748 | 0.844 | 0.721 | 0.901 | 0.905 | 1.02 |
| EMC-BAC-2 | 1.4 | 1.32 | 1.28 | 0.93 | 0.978 | 0.948 | 0.942 | 1 | 0.946 | 0.439 | 0.476 | 0.396 | 0.564 | 0.445 | 0.469 | 0.491 | 0.456 | 0.49 | 0.492 | 1.26 |
| EPLC-272H | 0.382 | 0.261 | 0.221 | 0.315 | 0.259 | 0.28 | 0.264 | – | 0.258 | 0.276 | 0.26 | 0.28 | 0.37 | 0.434 | 0.665 | 0.633 | 0.886 | 0.74 | 0.697 | – |
| H3255 | 1.09 | 1 | 0.757 | 0.888 | 0.636 | 0.643 | 0.7 | – | 0.587 | 0.396 | 0.472 | 0.51 | 0.44 | 0.5 | 0.586 | 0.546 | 0.611 | 0.629 | 0.622 | 0.41 |
| HARA | 0.858 | 0.98 | 1.66 | 0.49 | 0.802 | – | 0.929 | 0.628 | 0.774 | 0.329 | 0.292 | – | 0.46 | 0.304 | – | – | – | 0.738 | 0.987 | – |
| HCC-15 | 0.442 | 0.379 | 0.389 | 0.358 | 0.415 | 0.384 | 0.384 | – | 0.469 | 0.65 | 0.723 | 0.738 | 0.729 | 0.784 | 0.684 | 0.709 | 0.741 | 0.615 | 0.719 | – |
| HCC-44 | 1.17 | 1.03 | 1.11 | 1.21 | 1.08 | 1.1 | 1.04 | 1.08 | 0.992 | 0.569 | 0.609 | 0.498 | 0.614 | 0.602 | 0.971 | 0.921 | 1.03 | 1 | 1.01 | 0.987 |
| HCC-78 | – | – | – | – | 0.929 | 0.812 | 0.814 | 0.515 | 0.939 | 0.219 | 0.248 | 0.182 | 0.222 | 0.225 | 0.717 | – | 0.788 | 0.759 | 0.733 | – |
